In patent publication US20260015436A1, “ANTIBODIES FOR CHELATED RADIONUCLIDES” (Hoffmann-La Roche Inc., priority 2018, published 2026):

Legend:
[1] = tested on: LS174T tumors; test: Protocol 93b: efficacy and biodistribution of CEA-PRIT, LS174T model; type: in vivo, mice; details: day 22; 30+30 μCi
Experimental: (§1) The bispecific antibodies were compared side-by-side in single- and double-cycle treatment regimens.
(§2) Groups A-G represent the treated mice that were followed up for assessment of efficacy, whereas groups H-L comprise mice that were sacrificed for biodistribution purposes 24 h after their last ^212Pb-DOTAM injection.
For protocol 93b, mice (age 9 weeks) were injected s.c. into the right flank with 1×10^6 LS174T cells (passage 26) in 100 μL DMEM/Matrigel. Three days after tumor cell injection, mice were sorted into experimental groups with an average tumor volume of 150 mm^3.
(§3) To minimize re-ingestion of radioactive urine/feces after treatment cycle 1, cages were changed 4 hours after ^212Pb-DOTAM administration, and then again at 24 h p.i. […]
(§4) The tumor development in the mice was followed through repeated calipering three times a week. […] The body weight of the animals was measured repeatedly in the same fashion. […]
(§5) Mice in groups H, J, and L were sacrificed and necropsied 24 hours after their first and only injection of ^212Pb-DOTAM; groups I and K were sacrificed and necropsied 24 hours after their second ^212Pb-DOTAM injection. […] Collected samples were weighed and measured for radioactivity, and the percent injected dose per gram of tissue (% ID/g) subsequently calculated, including corrections for decay and background.

[2] = tested on: BxPC3 tumors; test: Protocol 146: ^212Pb-DOTAM biodistribution and absorbed dose estimation after PRIT; type: in vivo, SCID mice; details: for Mean absorbed dose, RBE = 1 / Mean absorbed dose, RBE = 5: 20 μCi pretargeted ^212Pb-DOTAM, tumor-bearing SCID
Experimental: Protocol 146 was designed to provide in vivo ^212Pb-DOTAM distribution data after PRIT for estimations of the absorbed radioactive dose to tumor and normal tissues, in SCID mice carrying s.c. BxPC3 tumors. The quenching of ^212Pb-DOTAM was performed using Ca (see example 34).
Pretargeting was performed by injection of CEA-DOTAM BsAb, followed 7 days later by the CA. After 24 hours, the ^212Pb-DOTAM was administered. Groups of mice were sacrificed at multiple time points from 5 minutes to 48 hours after the radioactive injection, and blood and organs harvested for radioactive measurement. Excrements were sampled at selected time points by use of metabolic cages to assess the excretion rate of the radioactive compound. Absorbed doses were finally calculated through established methods using the resulting time-activity curves.
Solid xenografts were established by s.c. injection of BxPC3 cells into SCID mice (Envigo) aged 8 weeks.
Mice in group E and F were individually housed (i.e. one mouse per cage) in grilled-floor metabolic cages. Urine and feces were collected from each cage 2, 6, and 24 hours after the radioactive injection, and the individual samples subsequently measured for radioactivity. Mice in group F were transferred to a regular cage 24 hours p.i.
Blood/serum was collected from all mice through retro-orbital bleeding before termination. After euthanasia, the following additional organs and tissues were harvested for radioactivity measurement and calculation of % ID/g: bladder, uterus, small intestine, colon, spleen, pancreas, kidneys, stomach, liver, lung, heart, brain, femoral bone, skin, muscle, abdominal fat, tail, and tumor.
Absorbed doses were calculated following the formalism outlined in Pamphlet No. 21 from the Medical Internal Radiation Dose (MIRD) Committee (Bolch W E, Eckerman K F, Sgouros G, and Thomas S R. J Nucl Med 2009; 50:477-484).
Formally, the absorbed dose D(rT) in a target tissue or region rT is calculated as the time-integral of the activity A(rS, t) multiplied by the absorbed dose rate per unit activity S(rT ←rS), summed over all source regions rS. Given that the vast majority of energy released by the ^212Pb decay chain comes from alpha radiation and furthermore by the much higher biological effectiveness of alpha radiation (as characterized by the relative biological effectiveness, RBE) two approximations were made: • 1. the energy is absorbed locally due to the short range of the alpha particles, which means that only the term S(rT←rT) is considered, and • 2. the contribution from beta and gamma radiation is neglected.
With Δα being the energy released by alpha decays, or rather the sum of the mean energies released by alpha decays in the decay chain of ^212Pb, here expressed in units J/(μCi·h), the absorbed dose in a target tissue or region rT is calculated by the formula: […]
The calculations are based on the composite (average) decay-corrected radioactive concentration at time t, expressed as [% ID/g]t. In a first step, these are transformed into radioactive concentrations as μCi per kg tissue weight for the target tissue rT:
A0[μCi]is the injected activity and λ is the exponential decay rate for ^212Pb, 0.0651 h^−1 (corresponding to the 10.6-hour half-life).
In a second step, the radioactive concentration was integrated over time for each tissue. This was achieved using the “Linear Log Trapezoidal calculation method” in the pharmacokinetic software Phoenix WinNonlin 6.4 (Certara USA, Inc., 100 Overlook Center, Suite 101, Princeton, NJ 08540 USA). The model type “Plasma” was used with uniform weighting.
In the final step, absorbed doses were calculated by multiplying the time integrals of the radioactive concentration by the energy release Δα=170·10^−6J/(μCi·h).

[3] = tested on: BxPC3 tumors; test: Protocol 93a: efficacy and biodistribution of CEA-PRIT, BxPC3 model; type: in vivo, mice; details: day 47; 30+30 μCi
Experimental: as §1, §2
For protocol 93a, mice (age 7 weeks) were injected s.c. into the right flank with 5×10^6 BxPC3 cells (passage 33) in 100 μL RPMI/Matrigel. Twelve days after tumor cell injection, mice were sorted into experimental groups with an average tumor volume of 235 mm^3.
as §3, §4, §5

## NC(=O)CN1CCN(CC(N)=O)CCN(CC(N)=O)CCN(CC(N)=O)CC1.[212Pb+2] [^212Pb-DOTAM]
[1]
  TGI compared with PBS: 64.7%
[2]; 5 minutes after injection, pretargeted by CEA-DOTAM BsAb
  accumulation of radioactivity in tumor: 17 % ID/g
[2]; Blood
  Mean absorbed dose, RBE = 1: 0.72 Gy
  Mean absorbed dose, RBE = 5: 3.60 Gy
[2]; Brain
  Mean absorbed dose, RBE = 1: 0.04 Gy
  Mean absorbed dose, RBE = 5: 0.19 Gy
[2]; Colon
  Mean absorbed dose, RBE = 1: 0.43 Gy
[2]; Femoral bone
  Mean absorbed dose, RBE = 1: 0.27 Gy
[2]; Heart
  Mean absorbed dose, RBE = 1: 0.33 Gy
[2]; Liver
  Mean absorbed dose, RBE = 1: 0.22 Gy
[2]; Muscle
  Mean absorbed dose, RBE = 1: 0.29 Gy
[2]; Pancreas
  Mean absorbed dose, RBE = 1: 0.36 Gy
  Mean absorbed dose, RBE = 5: 1.80 Gy
[2]; Serum
  Mean absorbed dose, RBE = 5: 8.20 Gy
[2]; Skin
  Mean absorbed dose, RBE = 1: 0.47 Gy
[2]; Small intestine
  Mean absorbed dose, RBE = 1: 0.22 Gy
[2]; Spleen
  Mean absorbed dose, RBE = 1: 0.27 Gy
[2]; Stomach
  Mean absorbed dose, RBE = 1: 0.24 Gy
  Mean absorbed dose, RBE = 5: 1.20 Gy
[2]; Tail
  Mean absorbed dose, RBE = 1: 0.54 Gy
[2]; Uterus
  Mean absorbed dose, RBE = 1: 0.61 Gy
[3]
  tumor growth inhibition (TGI) compared with PBS: 15.8%
